Reference: US9353090B2, “Heterocyclic carboxylic acids as activators of soluble guanylate cyclase” (Boehringer Ingelheim International GmbH, priority 2014, dated 2016)
≈ marks a conversion by molar mass, not a printed value.

What was measured:
[1] = target: human soluble guanylate cyclase alpha 1 and beta 1 subunits (sGC) (Homo sapiens (Human), UniProt Q02108+Q02153); assay: sGC cellular activator assay (cGMP, HTRF), in the presence and absence of 50% human serum; type: cell-based; details: CHO cells stably expressing human sGC alpha 1/beta 1, preincubated with 40 microM ODQ; cGMP by HTRF; Table 2 does not state whether with or without 50% human serum
Procedure, shortened: (§1)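 First, CHO-sGC (human α1β1) cells get 1 h ODQ at 40 microM with IBMX and 0.1% BSA. Finally, cGMP is quantified by HTRF and EC50 computed.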

[2] = Human liver microsome (HLM) metabolic stability assay; type: in vitro ADME; details: human liver microsomes
Procedure, shortened: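 Remaining parent measured by LC/MS/MS (ESI, MRM) at 5, 15, 30 and 60 min relative to 0 min. Incubation: 1 uM compound, HLMs, NADPH-started, 37° C., 60 min total, single replicate. Slope of ln(% remaining) gives t1/2 = 0.693/slope, then CLint, CLh and % Qh.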

[3] = 24 h
[4] = target: human soluble guanylate cyclase alpha 1 and beta 1 subunits (sGC) (Homo sapiens (Human), UniProt Q02153); assay: sGC cellular activator assay (cGMP, HTRF), in the presence and absence of 50% human serum; type: cell-based; details: CHO cells stably expressing human sGC alpha 1/beta 1, preincubated with 40 microM ODQ; cGMP by HTRF; Table 2 does not state whether with or without 50% human serum
Procedure, shortened: as §1

physchem = details: kinetic from dmso stock
[5] = pH 2.2, aqueous buffer, Solubility (pH 2.2)
[6] = pH 4.5, aqueous buffer, Solubility (pH 4.5)
[7] = pH 6.8, aqueous buffer, Solubility (pH 6.8)

human soluble guanylate cyclase alpha 1 and beta 1 subunits (sGC) (Homo sapiens (Human), UniProt Q02108+Q02153), sequence (Q02108 whole entry partner): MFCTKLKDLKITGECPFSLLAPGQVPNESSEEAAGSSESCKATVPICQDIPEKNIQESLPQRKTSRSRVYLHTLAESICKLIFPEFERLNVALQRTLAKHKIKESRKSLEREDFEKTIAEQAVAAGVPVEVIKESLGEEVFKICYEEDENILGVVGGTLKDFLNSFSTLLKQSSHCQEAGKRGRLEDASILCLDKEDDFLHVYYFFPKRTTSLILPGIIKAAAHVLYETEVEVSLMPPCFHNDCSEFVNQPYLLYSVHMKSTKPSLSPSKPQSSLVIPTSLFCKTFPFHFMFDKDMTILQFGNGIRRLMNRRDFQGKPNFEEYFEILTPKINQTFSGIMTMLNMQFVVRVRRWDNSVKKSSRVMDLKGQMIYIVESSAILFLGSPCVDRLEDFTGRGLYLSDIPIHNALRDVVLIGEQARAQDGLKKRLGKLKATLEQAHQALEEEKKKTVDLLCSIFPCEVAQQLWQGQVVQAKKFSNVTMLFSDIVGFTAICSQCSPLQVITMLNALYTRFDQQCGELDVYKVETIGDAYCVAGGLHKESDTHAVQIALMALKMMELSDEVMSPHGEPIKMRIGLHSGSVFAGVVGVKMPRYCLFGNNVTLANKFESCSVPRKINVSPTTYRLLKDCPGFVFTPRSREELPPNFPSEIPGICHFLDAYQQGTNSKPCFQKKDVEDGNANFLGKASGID
human soluble guanylate cyclase alpha 1 and beta 1 subunits (sGC) (Homo sapiens (Human), UniProt Q02108+Q02153), sequence (Q02153 whole entry): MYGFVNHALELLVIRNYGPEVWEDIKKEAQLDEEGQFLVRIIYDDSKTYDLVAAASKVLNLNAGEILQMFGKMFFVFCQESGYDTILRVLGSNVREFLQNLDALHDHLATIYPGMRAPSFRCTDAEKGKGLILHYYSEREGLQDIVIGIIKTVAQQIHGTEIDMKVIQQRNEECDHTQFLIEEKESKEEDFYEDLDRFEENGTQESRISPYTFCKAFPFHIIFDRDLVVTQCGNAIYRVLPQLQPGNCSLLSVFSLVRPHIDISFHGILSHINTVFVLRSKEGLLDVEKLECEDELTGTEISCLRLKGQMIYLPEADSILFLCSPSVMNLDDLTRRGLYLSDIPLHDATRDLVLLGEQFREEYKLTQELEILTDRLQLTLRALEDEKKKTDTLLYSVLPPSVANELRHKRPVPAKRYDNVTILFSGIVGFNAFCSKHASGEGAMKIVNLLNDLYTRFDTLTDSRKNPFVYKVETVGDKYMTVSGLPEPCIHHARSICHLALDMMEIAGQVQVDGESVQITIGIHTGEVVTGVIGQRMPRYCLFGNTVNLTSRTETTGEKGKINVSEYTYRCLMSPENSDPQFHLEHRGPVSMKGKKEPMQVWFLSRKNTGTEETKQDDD
human soluble guanylate cyclase alpha 1 and beta 1 subunits (sGC) (Homo sapiens (Human), UniProt Q02153), sequence (Q02108 whole entry partner): as the sequence (Q02108 whole entry partner) above
human soluble guanylate cyclase alpha 1 and beta 1 subunits (sGC) (Homo sapiens (Human), UniProt Q02153), sequence (Q02153 whole entry): as the sequence (Q02153 whole entry) above

Row | Structure (SMILES) | EC50 [1] | Metabolic stability (Qh %), % hepatic blood flow [2] | Solubility (pH 2.2) [3] | Solubility (pH 4.5) [3] | Solubility (pH 6.8) [3] | EC50 [4] | solubility at 24 h (physchem; [5]) | solubility at 24 h (physchem; [6]) | solubility at 24 h (physchem; [7])
1 | Cc1c(COc2ccccc2-c2cccc(N3CC[C@@]4(C(=O)O)C[C@H]4C3)n2)ccc2c1CCN(C1CCOCC1)C2 [Compound 3] |  | <24% | 140 μg/mL | 120 μg/mL | 60 μg/mL | 0.003 µM |  |  | 
2 | CO[C@@H]1CN(c2nc(-c3cccc(C)c3OCc3cc(C)c4c(c3)CCN(CC3COCCO3)C4)cs2)CC[C@@H]1C(=O)O (stereo partly drawn) [Compound 176] | 0.064 µM | <24% | 140 μg/mL | 95 μg/mL | 89 μg/mL |  |  |  | 
3 | Cc1cc(COc2c(C)cccc2-c2cccc(N3C[C@@H]4C[C@]4(C(=O)O)C3)n2)cc2c1CN(C1CCOC1)CC2 (stereo partly drawn) [Compound 25] | 0.016 µM | <24% | 100 μg/mL | 89 μg/mL | 62 μg/mL |  |  |  | 
4 | Cc1ccc(OCc2ccc3c(c2C)CCN(CC2COCCO2)CC3)c(-c2csc(N3CC[C@@]4(C(=O)O)C[C@H]4C3)n2)c1 (stereo partly drawn) [Compound 132] | 0.022 µM | 46% |  |  |  |  | 110 µg/mL (≈ 182 µM) | 23 µg/mL (≈ 38.1 µM) | 3.1 µg/mL (≈ 5.13 µM)
5 | COc1cc(COc2c(C)cccc2-c2csc(N3CC[C@@H](C(=O)O)[C@@H](OC)C3)n2)cc2c1CN([C@@H]1CCOC1)CC2 [Compound 210] | 0.016 µM | <24% |  |  |  |  | 136 µg/mL (≈ 230 µM) | 88.2 µg/mL (≈ 149 µM) | 75 µg/mL (≈ 126 µM)
6 | COC[C@@H]1N(c2cccc(-c3cccc(C)c3OCc3cc(C)c4c(c3)CCN(C3CCOCC3)C4)n2)C[C@@H]2C[C@@]21C(=O)O [Compound 62] | 0.465 µM | <24% |  |  |  |  | 130 µg/mL (≈ 217 µM) | 130 µg/mL (≈ 217 µM) | 130 µg/mL (≈ 217 µM)
7 | CO[C@H]1CN(c2nc(-c3cccc(C)c3OCc3cc(C)c4c(c3)CCN(CC3COCCO3)C4)cs2)CC[C@H]1C(=O)O (single isomer, unassigned) [Compound 169] | 0.029 µM | <24% | 130 μg/mL | 96 μg/mL | 90 μg/mL |  |  |  | 
8 | CO[C@@H]1CN(c2cccc(-c3cc(C)ccc3OCc3cc(C)c4c(c3)CCN(C3CCOC3)C4)n2)CC[C@@H]1C(=O)O (stereo partly drawn) [Compound 78] | 0.026 µM | <24% | 110 μg/mL | 91 μg/mL | 63 μg/mL |  |  |  | 
9 | Cc1cccc(-c2csc(N3C[C@H]4C[C@@]4(C(=O)O)[C@@H]3C)n2)c1OCc1ccc2c(c1C)CCN(C1CCOCC1)C2 [Compound 155] | 0.046 µM | <24% |  |  |  |  | 96 µg/mL (≈ 167 µM) | 69 µg/mL (≈ 120 µM) | 61 µg/mL (≈ 106 µM)
10 | CO[C@@H]1CN(c2nc(-c3cccc(C)c3OCc3cc(C)c4c(c3)CCN(CC3COCCO3)C4)cs2)CC[C@@H]1C(=O)O (stereo partly drawn) [Compound 175] | 0.155 µM | <24% |  |  |  |  | 140 µg/mL (≈ 230 µM) | 100 µg/mL (≈ 165 µM) | 95 µg/mL (≈ 156 µM)
11 | CO[C@@H]1CN(c2cccc(-c3cc(C)ccc3OCc3ccc4c(c3)CCN(C3CCOCC3)C4)n2)CC[C@@H]1C(=O)O [Compound 74] | 0.02 µM | <24% |  |  |  |  | 120 µg/mL (≈ 210 µM) | 100 µg/mL (≈ 175 µM) | 80 µg/mL (≈ 140 µM)
12 | CCO[C@@H]1CN(c2cccc(-c3cc(C)ccc3OCc3cc4c(c(OC)c3)CN(C3CCOCC3)CC4)n2)CC[C@@H]1C(=O)O [Compound 231] | 0.013 µM | 58% |  |  |  |  | 126 µg/mL (≈ 205 µM) | 126 µg/mL (≈ 205 µM) | 121 µg/mL (≈ 196 µM)
13 | CO[C@H]1CN(c2cccc(-c3cccc(C)c3OCc3ccc4c(c3C)CCN(C3COC3)CC4)n2)CC[C@@H]1C(=O)O [Compound 289] | 0.235 µM | <24% |  |  |  |  | 123 µg/mL (≈ 215 µM) | 82.4 µg/mL (≈ 144 µM) | 69.9 µg/mL (≈ 122 µM)

Now from value to molecule:

Row | EC50 [1] | Metabolic stability (Qh %), % hepatic blood flow [2] | Solubility (pH 2.2) [3] | Solubility (pH 4.5) [3] | Solubility (pH 6.8) [3] | EC50 [4] | solubility at 24 h (physchem; [5]) | solubility at 24 h (physchem; [6]) | solubility at 24 h (physchem; [7]) | Structure (SMILES)
14 | 0.009 µM | <24% | 110 μg/mL | 90 μg/mL | 67 μg/mL |  |  |  |  | Cc1cc(COc2c(C)cccc2-c2cccc(N3C[C@@H]4C[C@]4(C(=O)O)C3)n2)cc2c1CN(C1CCOC1)CC2 (stereo partly drawn) [Compound 26]
15 | 0.002 µM | <24% | 140 μg/mL | 70 μg/mL | 51 μg/mL |  |  |  |  | Cc1cc(COc2c(C)cccc2-c2csc(N3CC[C@@]4(C(=O)O)C[C@H]4C3)n2)cc2c1CN(CC1COCCO1)CC2 (stereo partly drawn) [Compound 93]
16 | 0.012 µM | 38% | 110 μg/mL | 93 μg/mL | 76 μg/mL |  |  |  |  | COC[C@H]1N(c2cccc(-c3cccc(C)c3OCc3cc(C)c4c(c3)CCN(C3CCOC3)C4)n2)C[C@@H]2C[C@@]21C(=O)O (single isomer, unassigned) [Compound 52]
17 | 0.01 µM | <24% |  |  |  |  | 143 µg/mL (≈ 233 µM) | 135 µg/mL (≈ 221 µM) | 129 µg/mL (≈ 211 µM) | COC[C@H]1N(c2cccc(-c3cccc(C)c3OCc3cc(C)c4c(c3C)CCN(C3CCOCC3)C4)n2)C[C@@H]2C[C@@]21C(=O)O [Compound 215]
18 | 0.005 µM | <24% |  |  |  |  | 109 µg/mL (≈ 179 µM) | 63.1 µg/mL (≈ 103 µM) | 59.4 µg/mL (≈ 97.4 µM) | CO[C@@H]1CN(c2nc(-c3cccc(C)c3OCc3ccc4c(c3F)CCN(C3CCOCC3)CC4)cs2)CC[C@@H]1C(=O)O [Compound 266]
19 | 0.008 µM | 28% |  |  |  |  | 130 µg/mL (≈ 235 µM) | 96 µg/mL (≈ 173 µM) | 41 µg/mL (≈ 74 µM) | Cc1ccc(OCc2ccc3c(c2)CCN(C2CCOCC2)C3)c(-c2cccc(N3CC[C@@]4(C(=O)O)C[C@H]4C3)n2)c1 [Compound 16]
20 | 0.009 µM | 47% |  |  |  |  | 110 µg/mL (≈ 183 µM) | 73 µg/mL (≈ 122 µM) | 53 µg/mL (≈ 88.4 µM) | CO[C@H]1CN(c2cccc(-c3cccc(C)c3OCc3ccc4c(c3C)CCN(C3CCOCC3)CC4)n2)CC[C@H]1C(=O)O [Compound 197]
21 | 0.007 µM | <24% |  |  |  |  | 120 µg/mL (≈ 220 µM) | 38 µg/mL (≈ 69.6 µM) | 5 µg/mL (≈ 9.16 µM) | Cc1ccc(OCc2ccc3c(c2)CCN(C2CCOC2)C3)c(-c2csc(N3CC[C@@]4(C(=O)O)C[C@H]4C3)n2)c1 (stereo partly drawn) [Compound 114]
22 | 0.002 µM | 45% |  |  |  |  | 97.4 µg/mL (≈ 156 µM) | 59.4 µg/mL (≈ 95.2 µM) | 56.8 µg/mL (≈ 91.1 µM) | CO[C@@H]1CN(c2nc(-c3cc(F)cc(C)c3OCc3ccc4c(c3)[C@@H](C)CN(C3CCOCC3)CC4)cs2)CC[C@@H]1C(=O)O [Compound 328]
23 | 0.011 µM | 43% |  |  |  |  | 120 µg/mL | 18 µg/mL | 1.6 µg/mL | Cc1ccc(OCc2cc(C)c3c(c2)CCN(C2CCOC2)C3)c(-c2csc(N3CC[C@@]4(C(=O)O)C[C@H]4C3)n2)c1 (mixture of isomers) [Compound 122]
24 | 0.004 µM | <24% |  |  |  |  | 110 µg/mL (≈ 192 µM) | 65 µg/mL (≈ 113 µM) | 25 µg/mL (≈ 43.6 µM) | Cc1ccc(OCc2ccc3c(c2C)CCN(C2CCOCC2)C3)c(-c2csc(N3C[C@@H]4C[C@]4(C(=O)O)[C@H]3C)n2)c1 [Compound 154]
25 | 0.006 µM | <24% |  |  |  |  | 145 µg/mL (≈ 237 µM) | 142 µg/mL (≈ 231 µM) | 134 µg/mL (≈ 219 µM) | COC[C@H]1N(c2cccc(-c3cccc(C)c3OCc3ccc4c(c3)[C@H](C)CN(C3CCOCC3)CC4)n2)C[C@@H]2C[C@@]21C(=O)O [Compound 226]
26 | 0.011 µM | 45% |  |  |  |  | 150 µg/mL (≈ 278 µM) | 120 µg/mL (≈ 222 µM) | 59 µg/mL (≈ 109 µM) | Cc1c(COc2ccccc2-c2cccc(N3CC[C@@]4(C(=O)O)C[C@H]4C3)n2)ccc2c1CCN([C@H]1CCOC1)C2 [Compound 7]
27 | 0.005 µM | 73% |  |  |  |  | 123 µg/mL (≈ 200 µM) | 118 µg/mL (≈ 193 µM) | 117 µg/mL (≈ 190 µM) | CCO[C@@H]1CN(c2cccc(-c3cc(C)ccc3OCc3ccc4c(c3C)CCN(C3CCOCC3)CC4)n2)CC[C@@H]1C(=O)O [Compound 240]
